# In patent US20190127381A1, “SUBSTITUTED FUSED PYRIMIDINONE COMPOUNDS” (TORRENT PHARMACEUTICALS LIMITED, priority 2016, published 2019):
# What was measured:
# [1] = target: T1, purified recombinant human PI3K enzyme γ (Homo sapiens, UniProt P48736); assay: Inhibition of PI3-Kinase enzymatic activity (HTRF enzyme assay), γ; assay type: biochemical; settings: 1 μM compound; PI3K γ 100 ng/well; PIP2 10 μM; ATP 50 μM; read-out: Percentage inhibition of PI3K activity, γ
# T1 construct: purchased Invitrogen, USA
# Experimental: (§1) Inhibition of PI3-Kinase enzymatic activity was determined using a homogeneous time-resolved fluorescence (HTRF) kit from Eurofins. 1 μM of Compounds of present invention were premixed with DMSO. The experiment was initiated by mixing 1.0% DMSO as vehicle/compounds with purified recombinant human PI3K enzyme {δ (50 ng/well); γ (100 ng/well)} (Invitrogen, USA) and substrate (PIP2, 10 μM) in the wells and incubation for 15 min at room temperature. There after ATP was added (δ at 200 μM, and γ at 50 μM) in to the wells containing reaction mixture, followed by re-incubation for 30 minutes at room temperature. Reaction was terminated by addition of a stopping solution and was further incubated for 4 hours at room temperature before reading using Envision multimode reader (Perkin Elmer). Percentage inhibition of PI3K activity was calculated by determining ratio of specific europium 665 nm energy transfer signal to reference 615 nm signals.
# [2] = target: T2, purified recombinant human PI3K enzyme δ (Homo sapiens, UniProt O00329); assay: Inhibition of PI3-Kinase enzymatic activity (HTRF enzyme assay), δ; assay type: biochemical; settings: 1 μM compound; PI3K δ 50 ng/well; PIP2 10 μM; ATP 200 μM; read-out: Percentage inhibition of PI3K activity, δ
# T2 construct: purchased Invitrogen, USA
# Experimental: as §1
# T1 sequence (P48736 whole entry): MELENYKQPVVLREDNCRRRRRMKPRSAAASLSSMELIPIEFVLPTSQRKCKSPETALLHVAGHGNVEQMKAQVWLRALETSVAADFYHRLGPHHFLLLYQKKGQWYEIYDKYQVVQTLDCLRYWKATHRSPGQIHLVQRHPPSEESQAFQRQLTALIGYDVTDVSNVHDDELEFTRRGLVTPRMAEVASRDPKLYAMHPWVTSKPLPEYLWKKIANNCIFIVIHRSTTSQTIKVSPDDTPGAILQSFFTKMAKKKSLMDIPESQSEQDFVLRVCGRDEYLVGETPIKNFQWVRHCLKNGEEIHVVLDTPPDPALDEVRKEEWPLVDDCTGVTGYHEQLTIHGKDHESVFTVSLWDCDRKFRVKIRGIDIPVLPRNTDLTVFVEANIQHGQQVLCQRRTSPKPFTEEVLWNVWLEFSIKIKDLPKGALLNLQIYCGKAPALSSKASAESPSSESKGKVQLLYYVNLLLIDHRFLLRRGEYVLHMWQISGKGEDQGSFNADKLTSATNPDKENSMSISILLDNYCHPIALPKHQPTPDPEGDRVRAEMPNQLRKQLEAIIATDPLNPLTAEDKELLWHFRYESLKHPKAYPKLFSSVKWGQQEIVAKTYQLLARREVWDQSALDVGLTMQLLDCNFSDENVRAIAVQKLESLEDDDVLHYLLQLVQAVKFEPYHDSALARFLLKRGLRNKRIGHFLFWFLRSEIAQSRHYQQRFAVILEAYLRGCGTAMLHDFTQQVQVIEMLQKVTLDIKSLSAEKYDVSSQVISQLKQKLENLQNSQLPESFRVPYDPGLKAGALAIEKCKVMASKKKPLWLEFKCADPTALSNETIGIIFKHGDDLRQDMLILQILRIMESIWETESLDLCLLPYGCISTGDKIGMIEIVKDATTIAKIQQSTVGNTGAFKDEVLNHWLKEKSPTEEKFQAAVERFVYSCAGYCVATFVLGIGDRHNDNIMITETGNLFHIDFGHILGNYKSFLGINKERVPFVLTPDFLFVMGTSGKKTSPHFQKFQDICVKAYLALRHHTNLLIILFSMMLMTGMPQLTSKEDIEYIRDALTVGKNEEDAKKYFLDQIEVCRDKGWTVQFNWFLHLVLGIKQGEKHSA
# T2 sequence (O00329 whole entry): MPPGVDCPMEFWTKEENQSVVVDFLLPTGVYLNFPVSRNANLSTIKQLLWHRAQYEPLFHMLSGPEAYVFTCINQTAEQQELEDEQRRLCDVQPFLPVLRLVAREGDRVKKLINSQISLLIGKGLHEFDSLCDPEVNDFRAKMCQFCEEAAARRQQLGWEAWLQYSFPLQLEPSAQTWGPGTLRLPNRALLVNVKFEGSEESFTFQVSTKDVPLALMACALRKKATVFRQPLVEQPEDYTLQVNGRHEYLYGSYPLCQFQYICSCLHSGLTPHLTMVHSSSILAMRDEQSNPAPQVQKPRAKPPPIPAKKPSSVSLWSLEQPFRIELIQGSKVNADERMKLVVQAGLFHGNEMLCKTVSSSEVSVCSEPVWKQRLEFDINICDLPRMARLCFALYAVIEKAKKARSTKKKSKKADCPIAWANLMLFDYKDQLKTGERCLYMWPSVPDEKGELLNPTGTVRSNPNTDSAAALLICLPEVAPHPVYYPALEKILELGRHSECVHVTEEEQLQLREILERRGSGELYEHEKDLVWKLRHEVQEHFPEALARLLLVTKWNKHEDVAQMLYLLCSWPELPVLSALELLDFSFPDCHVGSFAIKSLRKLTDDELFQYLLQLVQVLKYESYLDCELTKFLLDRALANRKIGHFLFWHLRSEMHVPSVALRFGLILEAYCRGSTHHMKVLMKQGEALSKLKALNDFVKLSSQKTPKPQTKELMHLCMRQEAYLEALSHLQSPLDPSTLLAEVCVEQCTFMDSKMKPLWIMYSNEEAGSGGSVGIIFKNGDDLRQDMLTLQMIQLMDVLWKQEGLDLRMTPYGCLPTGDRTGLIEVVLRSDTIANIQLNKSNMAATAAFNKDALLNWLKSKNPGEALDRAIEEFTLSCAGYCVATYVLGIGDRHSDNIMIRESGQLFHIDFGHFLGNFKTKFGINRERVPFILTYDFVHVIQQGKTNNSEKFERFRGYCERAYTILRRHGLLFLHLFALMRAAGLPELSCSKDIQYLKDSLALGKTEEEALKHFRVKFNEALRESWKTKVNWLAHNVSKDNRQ
# T2 sequence (P27986 whole entry partner): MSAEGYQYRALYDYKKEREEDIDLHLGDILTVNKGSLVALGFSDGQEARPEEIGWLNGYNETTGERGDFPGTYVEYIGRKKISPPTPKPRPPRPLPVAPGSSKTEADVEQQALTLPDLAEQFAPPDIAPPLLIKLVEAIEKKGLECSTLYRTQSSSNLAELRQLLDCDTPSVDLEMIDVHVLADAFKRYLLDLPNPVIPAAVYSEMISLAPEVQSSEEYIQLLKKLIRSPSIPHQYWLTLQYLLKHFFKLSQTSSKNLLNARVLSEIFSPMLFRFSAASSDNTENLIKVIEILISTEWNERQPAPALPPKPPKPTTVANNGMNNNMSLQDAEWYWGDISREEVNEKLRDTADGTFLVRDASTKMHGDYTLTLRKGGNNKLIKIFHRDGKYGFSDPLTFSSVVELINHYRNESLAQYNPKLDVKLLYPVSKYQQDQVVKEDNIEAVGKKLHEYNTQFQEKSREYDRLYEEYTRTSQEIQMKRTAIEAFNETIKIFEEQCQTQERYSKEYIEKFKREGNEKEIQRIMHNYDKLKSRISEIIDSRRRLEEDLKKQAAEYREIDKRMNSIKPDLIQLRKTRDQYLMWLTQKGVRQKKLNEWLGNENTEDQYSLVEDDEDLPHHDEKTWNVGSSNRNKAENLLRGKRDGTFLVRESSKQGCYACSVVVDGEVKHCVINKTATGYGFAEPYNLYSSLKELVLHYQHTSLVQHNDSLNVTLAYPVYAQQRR
Structure (SMILES),inhibition at 1 µM [1] [%],inhibition at 1 µM [2] [%]
"CC1(C)Cc2c(-c3nn(Cc4nc5cccc(-c6ccoc6)c5c(=O)n4-n4cccc4)c4ncnc(N)c34)ccc(O)c2O1 [compound 23, 2-{[4-amino-3-(7-hydroxy-2,2-dimethyl-2,3-dihydro-1-benzofuran-4-yl)-1H-pyrazolo[3,4-d]pyrimidin-1-yl]methyl}-5-(furan-3-yl)-3-(1H-pyrrol-1-yl)quinazolin-4(3H)-one]",80 to 100,80 to 100
"Cc1ccc(C)n1-n1c(Cn2nc(-c3ccc(O)c4c3CC(C)(C)O4)c3c(N)ncnc32)nc2cccc(-c3cnn(C)c3)c2c1=O [compound 62, 2-{[4-amino-3-(7-hydroxy-2,2-dimethyl-2,3-dihydro-1-benzofuran-4-yl)-1H-pyrazolo[3,4-d]pyrimidin-1-yl]methyl}-3-(2,5-dimethyl-1H-pyrrol-1-yl)-5-(1-methyl-1H-pyrazol-4-yl)quinazolin-4(3H)-one]",60 to 80,80 to 100
"Cc1cccc(C2(n3c(Cn4nc(-c5ccc(O)c6c5CC(C)(C)O6)c5c(N)ncnc54)nc4cccc(-c5ccnn5C)c4c3=O)CC2)c1 [compound 33, 2-{[4-amino-3-(7-hydroxy-2,2-dimethyl-2,3-dihydro-1-benzofuran-4-yl)-1H-pyrazolo[3,4-d]pyrimidin-1-yl]methyl}-3-[1-(3-methylphenyl)cyclopropyl]-5-(1-methyl-1H-pyrazol-5-yl)quinazolin-4(3H)-one]",60 to 80,80 to 100
"Cc1ccc(C)n1-n1c(Cn2nc(-c3ccc(O)c4c3CC(C)(C)O4)c3c(N)ncnc32)nc2cccc(-c3ccnn3C)c2c1=O [compound 41, 2-{[4-amino-3-(7-hydroxy-2,2-dimethyl-2,3-dihydro-1-benzofuran-4-yl)-1H-pyrazolo[3,4-d]pyrimidin-1-yl]methyl}-3-(2,5-dimethyl-1H-pyrrol-1-yl)-5-(1-methyl-1H-pyrazol-5-yl)quinazolin-4(3H)-one]",80 to 100,80 to 100
"CCn1cc(-c2cccc3nc(Cn4nc(-c5ccc(O)c6c5CC(C)(C)O6)c5c(N)ncnc54)n(-n4c(C)ccc4C)c(=O)c23)cn1 [compound 85, 2-{[4-amino-3-(7-hydroxy-2,2-dimethyl-2,3-dihydro-1-benzofuran-4-yl)-1H-pyrazolo[3,4-d]pyrimidin-1-yl]methyl}-3-(2,5-dimethyl-1H-pyrrol-1-yl)-5-(1-ethyl-1H-pyrazol-4-yl)quinazolin-4(3H)-one]",80 to 100,80 to 100
"CC1(C)Cc2c(-c3nn(Cc4nc5cccc(Cl)c5c(=O)n4-n4cc5ccccc5n4)c4ncnc(N)c34)ccc(O)c2O1 [Compound No. 4, 2-{[4-amino-3-(7-hydroxy-2,2-dimethyl-2,3-dihydro-1-benzofuran-4-yl)-1H-pyrazolo[3,4-d]pyrimidin-1-yl]methyl}-5-chloro-3-(2H-indazol-2-yl)quinazolin-4(3H)-one]",40 to 60,80 to 100
"CC1(C)Cc2c(-c3nn(Cc4nc5cccc(-c6ccsc6)c5c(=O)n4-n4cccc4)c4ncnc(N)c34)ccc(O)c2O1 [compound 14, 2-{[4-amino-3-(7-hydroxy-2,2-dimethyl-2,3-dihydro-1-benzofuran-4-yl)-1H-pyrazolo[3,4-d]pyrimidin-1-yl]methyl}-3-(1H-pyrrol-1-yl)-5-(thiophen-3-yl)quinazolin-4(3H)-one]",80 to 100,80 to 100
"Cc1cccc2nc(Cn3nc(-c4ccc(O)c5c4CC(C)(C)O5)c4c(N)ncnc43)n(-n3cccn3)c(=O)c12 [compound 7, 2-{[4-amino-3-(7-hydroxy-2,2-dimethyl-2,3-dihydro-1-benzofuran-4-yl)-1H-pyrazolo[3,4-d]pyrimidin-1-yl]methyl}-5-methyl-3-(1H-pyrazol-1-yl)quinazolin-4(3H)-one]",60 to 80,80 to 100
